The source of these data is publication PMC4729491, “The Cellular Thioredoxin-1/Thioredoxin Reductase-1 Driven Oxidoreduction Represents a Chemotherapeutic Target for HIV-1 Entry Inhibition” (PLoS ONE, 2016).

Data set [1] deals with HuT-78/HIV-1 and Sup-T1 cells. Kind of data set: cells. The format is cell-based. The note with it: cocultures of HuT-78/HIV-1 and Sup-T1 cells, ~24 hours; read-out: IC50 inhibition of syncytia formation. The procedure: Persistently infected HuT-78/HIV-1 cells were thoroughly washed to eliminate free virions. Next, 1 x 10^5 HuT-78/HIV-1 cells were co-cultivated with 1 x 10^5 Sup-T1 cells in 96-well plates (200 μl/well) during 20 h at 37°C, in the presence or absence of a serial dilution of compound. Afterwards, the formation of syncytia was evaluated microscopically. The EC50 was defined as the compound concentration required to suppress syncytia formation by 50%.

For data set [2] the following is noted: previously known structural properties ref 20-22; cited from earlier work.
The next data set has as its system PHA-stimulated PBMCs. Kind of data set: Toxicity in PHA-stimulated PBMCs (trypan blue cell counting). The format is cell-based, human. The note with it: proliferation of seven-day drug-exposed PHA-stimulated PBMCs; mean ± SD; read-out: IC50 PBMC. The procedure:
A similar experiment was performed to study the toxicity of the compounds in fresh, PHA-stimulated, PBMCs. Mock-infected PBMCs (2 x 10^5 cells) were exposed to a serial dilution of compound, in a total volume of 200 μl. Cells were passaged after 4 days. Cell survival and proliferation was assessed at day 7 using trypan blue-based cell counting with the Countess Automated Cell Counter (Invitrogen, Ghent, Belgium). The IC50 was defined as the concentration of the compound that inhibited cell proliferation by 50%.

The next data set concerns the target PDI (Homo sapiens, UniProt P07237). Kind of data set: SPR binding to immobilized PDI. The note with it: 10, 50 and 250 μM. As to the method:
SPR analysis was performed to evaluate binding of TE-2 to immobilized recombinant TrxR1, PDI, gp120, gp41 and sCD4. Therefore, these ligands were immobilized on a CM5 sensor chip (GE Healthcare, Uppsala, Sweden) using standard amine coupling in the presence of 10 mM sodium acetate, pH 5. A high ligand-density chip was created, with ligand densities of 6759, 5004, 4119, 2900 and 5569 RU, respectively. A reference flow cell was used to control for non-specific binding and refractive index changes. All interactions were studied at 25°C on a Biacore T200 instrument (GE Healthcare, Uppsala, Sweden) in HBS-P (10 mM HEPES, 150 mM NaCl and 0.05% surfactant P20; pH 7.4) supplemented with 10 mM CaCl2 and 5% DMSO. TE-2 was tested at the concentrations 10, 50 and 250 μM. Samples were injected during 2 minutes at a flow rate of 30 μl/min, followed by a dissociation phase of 2 minutes. Each injection was followed by a regeneration step with 50 mM NaOH (injected during 10 seconds at a flow rate of 100 μl/min).

Another data set concerns HIV-2(ROD). Nature of the data set: Inhibition of HIV-2(ROD)-induced giant cell formation in CEM cell cultures. The data set is classed as cell-based. The following applies: CEM cells. The procedure:
To study the antiviral activity in transformed cells, CEM cells were suspended in fresh culture medium and infected with HIV-1(IIIB) or HIV-2(ROD) at 100 x CCID50 (cell culture infective dose 50%) per ml of cell suspension. Infected cell suspension (100 μl; 3 x 10^5 cells/ml) was transferred to a 96-well microplate, mixed with 100 μl of the appropriate dilutions of compounds, and further incubated at 37°C. After 4 days, giant cell formation was recorded microscopically and the number of giant cells was estimated microscopically as percentage of the number of giant cells present in the non-treated virus-infected cell cultures.

Another data set relates to HIV-1(BaL). Kind of data set: Antiviral activity in PHA-stimulated PBMCs (p24 ELISA), HIV-1(BaL). The data set is classed as cell-based. The following applies: PHA-stimulated PBMCs; mean ± SD; read-out: EC50 HIV-1 (BAL). As to the method: (§1) To test the antiviral activity in fresh, PHA-stimulated PBMCs, an experiment was performed as previously described. Briefly, the cells were preincubated with HIV-1(IIIB), HIV-1(BaL) or HIV-1(HE) for 1 h at 37°C, using a viral load of 1000 x CCID50 per ml. Then, cell suspensions containing virus and 2 x 10^5 PBMCs were seeded in a 96-well microtiter plate and a serial dilution of compound was added, in a total volume of 200 μl. After 4 days, the cells were passaged and fresh culture medium, containing IL-2 and compound, was added. Three days later, cellular supernatants were harvested and viral replication in the presence of the compounds was quantified using a p24 enzyme-linked immunosorbent assay (ELISA) (Perkin Elmer, Brussels, Belgium). The half maximal effective concentration (EC50) was defined as the compound concentration that is required to block viral replication by 50%.

For data set [3], the system named is HIV-1(IIIB). The data set is classed as cell-based. The note with it: MT-4 cells, p24 ELISA at 31 h; TE-2 at 50 μM. The procedure:
Two time-of-drug-addition (TOA) experiments were performed and adopted from previously reported methods. Briefly, MT-4 cells were infected with HIV-1(IIIB) at a multiplicity of infection of 0.5. Following a 1 hour adsorption period, cells were washed, distributed in a 96-well tray at 100,000 cells per 200 μl per well and incubated at 37°C.
For the first experiment, test compounds were added to the infected cell cultures at different time points (i.e. 0, 1, 2, 3, 4, 5, 6, 7, 8, 9, 24, and 25 h) after the start of infection.
In a second experiment, the resolution of the assay was increased by evaluating early time points in more detail. Therefore, the test compounds were added to the infected cell cultures at the following time points after the start of infection: 0, 15, 30, 45, 100 and 180 min; and 24 as well as 25 h.
Product added at time points 0, 15, 30 and 45 min was present at the start of the viral infection and washed away after 1 hour. After washing, fresh product was added to maintain viral suppression throughout the remaining of the experiment.
HIV-1 production was determined at 31 h post infection via a p24 ELISA (Perkin Elmer, Brussels, Belgium).

The test system of data set [4] is HIV-1(IIIB). Nature of the data set: Antiviral activity in PHA-stimulated PBMCs (p24 ELISA), HIV-1(IIIB). The note with it: PHA-stimulated PBMCs; mean ± SD; read-out: EC50 HIV-1 (IIIB). The format is cell-based. As to the method:
as §1

In a further data set the test system is HIV-1. Nature of the data set: Infectivity (TZM-bl) of virus particles produced by ACH-2 cells in presence of compound. The data set is classed as cell-based. The following applies: ACH-2 cultures exposed to compound 3 days; supernatant 1:100 titrated on TZM-bl. As to the method:
To measure the infectivity of particles produced in the presence of the compounds, washed persistently HIV-1-infected ACH-2 cells (1 x 10^6 cells/ml) were cultured with 100 nM PMA in the presence of the indicated concentration of compounds. After 3 days, the p24 content of the clarified supernatant (see virus expression) was measured. The cell supernatant was then used for an infectivity test (see infectivity assay) without the further addition of any compound to the cultures. The final dilution of the ACH-2 supernatant in the infectivity test was 1:100. A control experiment was performed, in which virus particles produced without the addition of compound, were used for the infectivity test. Additionally, the same amount of compound that could have been carried over with the virus containing supernatant in the original experiment was added to the infectivity test (final concentration: 1/100 of the indicated amount in the viral growth culture).

Entries after “also recorded” stand apart in the source; their conditions may differ. Bounds are passed on as bounds.

Sequence of PDI (P07237 18-508, species assumed): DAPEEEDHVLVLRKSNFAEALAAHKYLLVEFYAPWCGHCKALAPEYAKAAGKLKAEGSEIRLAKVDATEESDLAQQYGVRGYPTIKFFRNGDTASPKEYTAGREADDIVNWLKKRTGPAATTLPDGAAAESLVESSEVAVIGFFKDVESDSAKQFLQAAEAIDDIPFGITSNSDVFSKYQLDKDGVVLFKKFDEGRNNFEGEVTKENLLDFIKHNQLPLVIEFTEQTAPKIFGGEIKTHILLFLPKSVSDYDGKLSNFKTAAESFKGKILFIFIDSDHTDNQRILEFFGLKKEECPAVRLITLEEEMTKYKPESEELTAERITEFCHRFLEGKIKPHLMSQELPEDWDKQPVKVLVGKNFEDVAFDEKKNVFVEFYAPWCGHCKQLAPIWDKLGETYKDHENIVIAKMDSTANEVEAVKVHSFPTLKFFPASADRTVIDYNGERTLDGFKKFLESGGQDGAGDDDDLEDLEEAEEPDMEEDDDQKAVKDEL

For “6-(butyltelluro)-6-deoxy-β-cyclodextrin [TE-2]”, the IC50 was over 250 µM in data set [1] and 54 ± 16 µM in the data set on PHA-stimulated PBMCs. Also, the Hydrophobicity result in [2] was “Hydrophilic”. The “SPR binding to PDI” value on PDI is “dose-dependently interact with PDI”. Besides, the “Ratio IC50/EC50 HIV-2 (CEM)” value with HIV-2(ROD) was determined as 167. In addition, the EC50 in the data set on HIV-2(ROD) (concentration required to protect against cytopathogenicity of HIV by 50%, mean ± SD, read-out: EC50 HIV-2 (ROD)) is 1.5 ± 0.52 µM; with HIV-1(BaL), at least 25 µM; in the data set with HIV-1(IIIB) [4], 15 ± 7 µM. Further, the time-of-drug-addition profile entry in the data set with HIV-1(IIIB) [3] is listed as “mostly lost when added at t = 1 h after infection; also recorded: profile resembling that of the fusion inhibitor enfuvirtide (T-20)”. Besides, in the data set with HIV-1, the “infectivity of virus particles produced in presence of compound (normalized for equal p24)” value is “substantially less infectious virus particles”.
